These results are taken from patent publication US10870647B2, “Imidazopyridine derivative, method for preparing same, and pharmaceutical composition containing same as active ingredient for preventing or treating cancer” (DAEGU-GYEONGBUK MEDICAL INNOVATION FOUNDATION, priority 2016, dated 2020).

What all share (test): Kinase selectivity, scanMAX Kinase assay panel (DiscoverX), % control at 1 uM
What all share (assay type): binding

The target in assay [1] is T1, scanMAX Kinase assay panel (Homo sapiens, UniProt P22455).
T1 construct: purchased DiscoverX
To be noted: FGFR4; 1 uM; read-out: Percent Control (%). In outline: (§1)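 Binding across the scanMAX kinase panel was tested at 1 uM compound. % control = (compound − positive control)/(negative control − positive control) × 100; below 35 counted as active.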

Assay [2] concerns the target T2, scanMAX Kinase assay panel (Homo sapiens, UniProt P51812).
T2 construct: purchased DiscoverX
To be noted: 1 uM, read-out: Percent Control (%). A digest of the protocol:
as §1

Assay [3] has as its target T3, scanMAX Kinase assay panel (Homo sapiens, UniProt P57078).
T3 construct: purchased DiscoverX
T3 sequence (P57078 1-832): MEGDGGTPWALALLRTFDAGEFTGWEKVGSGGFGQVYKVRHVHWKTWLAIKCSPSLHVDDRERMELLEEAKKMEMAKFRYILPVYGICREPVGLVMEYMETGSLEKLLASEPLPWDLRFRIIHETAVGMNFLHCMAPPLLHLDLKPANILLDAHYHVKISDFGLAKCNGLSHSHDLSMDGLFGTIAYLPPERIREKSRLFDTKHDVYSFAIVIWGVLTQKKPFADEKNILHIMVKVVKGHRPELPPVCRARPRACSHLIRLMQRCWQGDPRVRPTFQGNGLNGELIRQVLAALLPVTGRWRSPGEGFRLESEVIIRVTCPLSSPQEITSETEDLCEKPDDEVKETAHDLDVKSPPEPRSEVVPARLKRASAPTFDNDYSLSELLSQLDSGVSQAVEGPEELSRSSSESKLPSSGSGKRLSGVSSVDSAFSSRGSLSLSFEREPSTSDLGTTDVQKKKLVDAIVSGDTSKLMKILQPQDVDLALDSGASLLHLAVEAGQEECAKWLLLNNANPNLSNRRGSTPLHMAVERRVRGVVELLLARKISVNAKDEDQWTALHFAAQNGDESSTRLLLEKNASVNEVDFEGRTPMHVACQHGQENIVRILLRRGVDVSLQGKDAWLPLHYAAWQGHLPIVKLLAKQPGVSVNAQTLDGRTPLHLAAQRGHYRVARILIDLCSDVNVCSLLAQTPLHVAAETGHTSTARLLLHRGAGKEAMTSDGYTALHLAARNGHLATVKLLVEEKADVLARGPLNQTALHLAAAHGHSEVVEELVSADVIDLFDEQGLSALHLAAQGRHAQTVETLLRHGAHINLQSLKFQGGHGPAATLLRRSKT
To be noted: RIPK4; 1 uM; read-out: Percent Control (%). A digest of the protocol:
as §1

Assay [4] has as its target T4, scanMAX Kinase assay panel (Homo sapiens, UniProt Q13043).
T4 construct: purchased DiscoverX
T4 sequence (Q13043 1-487): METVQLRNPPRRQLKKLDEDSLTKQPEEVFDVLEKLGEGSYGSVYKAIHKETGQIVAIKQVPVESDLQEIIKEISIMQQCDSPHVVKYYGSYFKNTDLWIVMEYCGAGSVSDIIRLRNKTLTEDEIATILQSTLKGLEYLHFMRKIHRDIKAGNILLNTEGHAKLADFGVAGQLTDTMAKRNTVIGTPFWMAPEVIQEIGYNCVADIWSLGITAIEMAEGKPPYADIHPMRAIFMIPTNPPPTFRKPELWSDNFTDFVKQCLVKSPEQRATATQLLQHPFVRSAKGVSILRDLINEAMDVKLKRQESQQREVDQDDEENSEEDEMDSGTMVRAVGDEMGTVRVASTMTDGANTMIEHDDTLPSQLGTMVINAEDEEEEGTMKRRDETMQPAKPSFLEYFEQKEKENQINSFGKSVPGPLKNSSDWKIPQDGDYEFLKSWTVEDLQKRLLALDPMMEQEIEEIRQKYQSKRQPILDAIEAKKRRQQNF
To be noted: MST1; 1 uM; read-out: Percent Control (%). A digest of the protocol:
as §1

The target of assay [5] is T5, scanMAX Kinase assay panel (Homo sapiens, UniProt Q13470).
T5 construct: purchased DiscoverX
T5 sequence (Q13470 1-666): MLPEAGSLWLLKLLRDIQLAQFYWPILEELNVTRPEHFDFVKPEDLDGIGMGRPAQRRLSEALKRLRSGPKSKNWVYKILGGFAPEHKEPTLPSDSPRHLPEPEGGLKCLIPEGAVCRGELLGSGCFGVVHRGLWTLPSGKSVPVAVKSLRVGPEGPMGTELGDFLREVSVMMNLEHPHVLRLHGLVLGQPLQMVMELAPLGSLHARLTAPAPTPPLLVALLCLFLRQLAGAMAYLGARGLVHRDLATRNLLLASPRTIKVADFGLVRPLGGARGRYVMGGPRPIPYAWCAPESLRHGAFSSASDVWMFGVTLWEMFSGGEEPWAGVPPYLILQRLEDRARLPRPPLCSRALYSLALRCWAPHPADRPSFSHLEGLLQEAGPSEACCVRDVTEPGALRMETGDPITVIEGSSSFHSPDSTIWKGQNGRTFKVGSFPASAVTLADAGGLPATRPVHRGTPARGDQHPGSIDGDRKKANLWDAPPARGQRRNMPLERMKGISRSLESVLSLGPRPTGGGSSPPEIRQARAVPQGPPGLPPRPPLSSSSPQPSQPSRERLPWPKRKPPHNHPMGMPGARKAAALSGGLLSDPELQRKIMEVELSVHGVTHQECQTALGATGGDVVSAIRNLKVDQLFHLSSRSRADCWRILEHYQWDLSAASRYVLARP
To be noted: TNK1; 1 uM; read-out: Percent Control (%). In outline:
as §1

The target in assay [6] is T6, scanMAX Kinase assay panel (Homo sapiens, UniProt Q99755).
T6 construct: purchased DiscoverX
To be noted: PIP5K1A; 1 uM; read-out: Percent Control (%). A digest of the protocol:
as §1

Read-outs that look alike come from different tables or passages of the source.

T2 sequence (P51812 whole entry): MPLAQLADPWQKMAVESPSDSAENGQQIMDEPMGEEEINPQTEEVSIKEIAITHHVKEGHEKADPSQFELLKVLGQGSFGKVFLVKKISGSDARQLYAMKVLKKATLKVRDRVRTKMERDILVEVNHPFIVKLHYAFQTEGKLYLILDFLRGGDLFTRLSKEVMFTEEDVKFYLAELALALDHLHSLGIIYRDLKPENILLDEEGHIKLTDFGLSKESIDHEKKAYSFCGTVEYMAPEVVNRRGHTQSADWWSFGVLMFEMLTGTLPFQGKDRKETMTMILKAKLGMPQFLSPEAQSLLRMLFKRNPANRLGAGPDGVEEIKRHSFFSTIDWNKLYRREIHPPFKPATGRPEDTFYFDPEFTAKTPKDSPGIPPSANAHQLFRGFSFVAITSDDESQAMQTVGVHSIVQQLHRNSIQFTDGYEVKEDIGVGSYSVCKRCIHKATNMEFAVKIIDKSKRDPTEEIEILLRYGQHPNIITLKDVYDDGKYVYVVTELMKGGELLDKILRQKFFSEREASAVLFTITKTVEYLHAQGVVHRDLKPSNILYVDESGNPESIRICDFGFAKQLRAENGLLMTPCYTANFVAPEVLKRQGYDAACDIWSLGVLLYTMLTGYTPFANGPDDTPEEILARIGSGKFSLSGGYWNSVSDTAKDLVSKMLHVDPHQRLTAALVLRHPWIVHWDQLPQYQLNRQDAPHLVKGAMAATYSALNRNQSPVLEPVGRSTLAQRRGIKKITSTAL
T1 sequence (P22455 22-802): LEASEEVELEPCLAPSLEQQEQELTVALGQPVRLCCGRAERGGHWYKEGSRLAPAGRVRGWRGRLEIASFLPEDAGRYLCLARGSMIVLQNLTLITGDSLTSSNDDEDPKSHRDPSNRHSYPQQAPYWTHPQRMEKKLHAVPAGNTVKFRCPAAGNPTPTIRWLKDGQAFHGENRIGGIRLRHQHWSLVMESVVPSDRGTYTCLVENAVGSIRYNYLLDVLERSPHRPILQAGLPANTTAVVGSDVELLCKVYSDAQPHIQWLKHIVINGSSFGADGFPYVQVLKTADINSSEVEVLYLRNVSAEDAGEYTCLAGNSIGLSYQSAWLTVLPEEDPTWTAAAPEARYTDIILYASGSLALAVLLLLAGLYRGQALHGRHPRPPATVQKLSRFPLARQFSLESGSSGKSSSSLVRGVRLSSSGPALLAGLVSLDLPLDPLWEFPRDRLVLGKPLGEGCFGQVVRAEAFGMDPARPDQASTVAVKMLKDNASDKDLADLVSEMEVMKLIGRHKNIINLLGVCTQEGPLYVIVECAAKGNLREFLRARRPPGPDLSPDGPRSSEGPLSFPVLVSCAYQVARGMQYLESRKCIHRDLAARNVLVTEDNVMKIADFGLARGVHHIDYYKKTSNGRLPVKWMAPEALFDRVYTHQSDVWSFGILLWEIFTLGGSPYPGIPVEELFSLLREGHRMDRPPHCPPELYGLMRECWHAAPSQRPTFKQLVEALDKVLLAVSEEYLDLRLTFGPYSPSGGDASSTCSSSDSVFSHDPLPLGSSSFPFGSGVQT
T6 sequence (Q99755 whole entry): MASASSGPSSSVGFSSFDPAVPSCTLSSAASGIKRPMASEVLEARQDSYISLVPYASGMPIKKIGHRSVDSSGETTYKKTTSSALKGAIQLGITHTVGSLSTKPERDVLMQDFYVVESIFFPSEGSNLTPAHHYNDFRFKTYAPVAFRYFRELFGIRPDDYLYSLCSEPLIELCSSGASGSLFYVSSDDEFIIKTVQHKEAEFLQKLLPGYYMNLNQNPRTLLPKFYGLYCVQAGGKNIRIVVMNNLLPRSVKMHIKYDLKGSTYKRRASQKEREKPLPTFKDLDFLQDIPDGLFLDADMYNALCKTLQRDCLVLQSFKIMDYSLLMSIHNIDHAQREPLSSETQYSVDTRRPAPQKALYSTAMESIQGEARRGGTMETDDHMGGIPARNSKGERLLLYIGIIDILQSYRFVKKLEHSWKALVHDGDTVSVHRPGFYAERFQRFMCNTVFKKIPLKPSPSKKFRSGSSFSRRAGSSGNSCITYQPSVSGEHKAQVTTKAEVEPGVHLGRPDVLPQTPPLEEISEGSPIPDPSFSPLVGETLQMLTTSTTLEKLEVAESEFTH

On to `Cc1ccc(C(=O)Nc2ccc(CN3CCN(C)CC3)c(C(F)(F)F)c2)cc1C#Cc1cnc2c(Nc3cnn(C)c3)cccn12` [Example 1, 4-methyl-3-((8-((1-methyl-1H-pyrazol-4-yl)amino)imidazo[1,2-a]pyridin-3-yl)ethynyl)-N-(4-((4-methylpiperazin-1-yl)methyl)-3-(trifluoromethyl)phenyl)benzamide], for which the remaining binding at 1 µM in assay [1] turned out to be 0%; in assay [2] (RSK2 (Kin.Dom.1-N-terminal)), 35%; in assay [2] (RSK2 (Kin.Dom.2-C-terminal)), 93%; in assay [3] it was 13%; in assay [4], 27%; in assay [5], 0%. In addition, the remaining binding at 1 µM in assay [6] turned out to be 94%.
As to `Cc1cn(-c2cc(NC(=O)c3ccc(C)c(C#Cc4cnc5c(Nc6cnn(C)c6)cccn45)c3)cc(C(F)(F)F)c2)cn1` [Example 12, 4-methyl-N-(3-(4-methyl-1H-imidazol-1-yl)-5-(trifluoromethyl)phenyl)-3-((8-((1-methyl-1H-pyrazol-4-yl)amino)imidazo[1,2-a]pyridin-3-yl)ethynyl)benzamide], the remaining binding at 1 µM stood at 32% in assay [1]; 100% in assay [2] (RSK2 (Kin.Dom.1-N-terminal)); 94% in assay [2] (RSK2 (Kin.Dom.2-C-terminal)); 100% in assay [3]; 84% in assay [4]; 19% in assay [5]. In addition, in assay [6], the remaining binding at 1 µM is 84%.
Regarding `Cc1ccc(NC(=O)C2(C(=O)Nc3ccc(F)cc3)CC2)cc1C#Cc1cnc2c(Nc3cnn(C(C)C)c3)cccn12` [Example 78], the remaining binding at 1 µM in assay [1] is 100%; in assay [2] (RSK2 (Kin.Dom.1-N-terminal)) it was 99%; in assay [2] (RSK2 (Kin.Dom.2-C-terminal)), 81%; in assay [3], 100%; in assay [4] it was 100%; in assay [5] it was 100%. In assay [6], the remaining binding at 1 µM was 98%.
